Reference: patent EP4603105A1, “PHARMACEUTICAL COMPOSITION CONTAINING CYCLIC COMPOUND HAVING SELECTIVE KRAS INHIBITORY EFFECT AGAINST HRAS AND NRAS” (CHUGAI SEIYAKU KABUSHIKI KAISHA, priority 2022, dated 2024)

Assays:
HRAS wild-type protein = HRAS wild-type protein (Homo sapiens, UniProt P01112); test: Binding to HRAS by surface plasmon resonance (SPR), KD and KD ratio to KRAS; conditions: ratio of KD for HRAS wild-type protein to KD for KRAS
Outline: (§1)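 Measured at 30°C: SPR with GDP-loaded, E. coli-expressed biotin-Avi RAS captured (~100–300 RU), ascending 75 s compound injections, HBS pH 7.4 with GDP, MgCl2, 4% DMSO. KD from 1:1 fit.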

[1] = test system: human lung cancer strain NCI-H441; format: cell-based
Outline: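 Signal came from […] measured per well once the reagent was added. Beforehand, cells were cultured at 37°C and 5% carbon dioxide on a compound series serially diluted in dimethyl sulfoxide.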

[2] = target: GDP-bound KRAS wild-type protein (Homo sapiens, UniProt P01116); test: Binding to KRAS by surface plasmon resonance (SPR), dissociation constant KD; conditions: 1:1 binding model
Chain of GDP-bound KRAS wild-type protein (P01116 1-188 isoform P01116-2): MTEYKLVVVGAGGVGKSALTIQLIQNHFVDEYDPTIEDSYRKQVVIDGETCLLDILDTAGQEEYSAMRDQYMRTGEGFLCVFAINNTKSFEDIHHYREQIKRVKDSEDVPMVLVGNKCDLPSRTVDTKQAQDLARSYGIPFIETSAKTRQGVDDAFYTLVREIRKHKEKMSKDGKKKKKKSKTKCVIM
Outline: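 Biotinylated GDP-bound RAS was captured at about 100–300 RU. Running buffer: HBS pH 7.4, 10 mM MgCl2, 10 µM GDP, 1 mM DTT, 0.01% Tween 20, 4% DMSO.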

[3] = target: GDP-bound NRAS wild-type protein (Homo sapiens, UniProt P01111); test: Binding to NRAS by surface plasmon resonance (SPR), KD and KD ratio to KRAS; conditions: ratio of KD for GDP-bound NRAS wild-type protein to KD for KRAS
Chain of GDP-bound NRAS wild-type protein (P01111 whole entry): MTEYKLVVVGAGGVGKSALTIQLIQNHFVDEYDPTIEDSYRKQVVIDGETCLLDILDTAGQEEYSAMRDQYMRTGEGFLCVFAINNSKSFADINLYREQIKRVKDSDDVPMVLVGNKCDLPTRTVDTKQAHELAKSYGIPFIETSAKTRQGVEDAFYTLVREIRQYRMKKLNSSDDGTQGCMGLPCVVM
Outline: as §1

Chain of HRAS wild-type protein (P01112 whole entry): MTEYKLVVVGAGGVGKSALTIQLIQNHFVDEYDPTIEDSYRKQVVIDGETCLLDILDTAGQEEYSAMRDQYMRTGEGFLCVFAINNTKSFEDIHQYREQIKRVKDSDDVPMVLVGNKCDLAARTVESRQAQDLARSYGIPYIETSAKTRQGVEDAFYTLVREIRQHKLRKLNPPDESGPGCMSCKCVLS

SMILES | IC50 [1] [µM] | Kd [2] [µM] | HRAS /KRAS (HRAS wild-type protein) | NRAS /KRAS [3]
CCO[C@@H]1C[C@H]2C(=O)NC3(CC(C)(C)C3)C(=O)N(C)[C@@H](C3CCCC3)C(=O)N(C)[C@H](C(=O)N(C)CC)CC(=O)N(C)[C@@H](CC(C)C)C(=O)N[C@@H]([C@@H](C)CC)C(=O)N(C)CC(=O)N(C)[C@H]3C/C=C\CCN(C3=O)[C@@H](Cc3ccc(C(F)F)cc3)C(=O)N(C)CC(=O)N[C@@H](CCc3cc(F)c(CC)c(OC)c3)C(=O)N2C1 [PP3143] | 0.041 | 0.00066 | A (a compound having 10 or more and less than 20 is denoted as A) | A (a compound having 10 or more and less than 20 is denoted as A)
CCO[C@@H]1C[C@H]2C(=O)NC3(CC(C)(C)C3)C(=O)N(C)[C@@H](C3CCCC3)C(=O)N(C)[C@H](C(=O)N(C)CC)CC(=O)N(C)[C@@H](CC(C)C)C(=O)N[C@@H]([C@@H](C)CC)C(=O)N(C)CC(=O)N(C)[C@H]3C/C=C\CCN(C3=O)[C@@H](Cc3ccc(C(F)F)cc3)C(=O)N(C)CC(=O)N[C@@H](CCc3cc(C)c(C(F)F)c(F)c3)C(=O)N2C1 [PP3145] | 0.0299 | 0.00069 | A (a compound having 10 or more and less than 20 is denoted as A) | A (a compound having 10 or more and less than 20 is denoted as A)
CCO[C@@H]1C[C@H]2C(=O)NC3(CC(C)(C)C3)C(=O)N(C)[C@@H](C3CCCC3)C(=O)N(C)[C@H](C(=O)N(C)CC)CC(=O)N(C)[C@@H](CC(C)C)C(=O)N[C@@H]([C@@H](C)CC)C(=O)N(C)CC(=O)N(C)[C@H]3C/C=C\CCN(C3=O)[C@@H](Cc3ccc(C(F)F)cc3)C(=O)N(C)CC(=O)N[C@@H](CCc3cc(F)c(C(F)F)c(OC)c3)C(=O)N2C1 [PP3147] | 0.0546 | 0.00041 | A (a compound having 10 or more and less than 20 is denoted as A) | A (a compound having 10 or more and less than 20 is denoted as A)
CCO[C@@H]1C[C@H]2C(=O)NC3(CC(C)(C)C3)C(=O)N(C)[C@@H](C3CCCC3)C(=O)N(C)[C@H](C(=O)N(C)CC)CC(=O)N(C)[C@@H](CC(C)C)C(=O)N[C@@H]([C@@H](C)CC)C(=O)N(C)CC(=O)N(C)[C@H]3C/C=C\CCN(C3=O)[C@@H](Cc3ccc(C(F)F)cc3)C(=O)N(C)CC(=O)N[C@@H](CCc3cc(C)c(C4CC4)c(C)c3)C(=O)N2C1 [PP3148] | 0.0759 | 0.0024 | A (a compound having 10 or more and less than 20 is denoted as A) | A (a compound having 10 or more and less than 20 is denoted as A)
CCO[C@@H]1C[C@H]2C(=O)NC3(CC(C)(C)C3)C(=O)N(C)[C@@H](C3CCCC3)C(=O)N(C)[C@H](C(=O)N(C)CC)CC(=O)N(C)[C@@H](CC(C)C)C(=O)N[C@@H]([C@@H](C)CC)C(=O)N(C)CC(=O)N(C)[C@H]3C/C=C\CCN(C3=O)[C@@H](Cc3ccc(C(F)F)cc3)C(=O)N(C)CC(=O)N[C@@H](CCc3cc(F)c4c(c3)OCC4)C(=O)N2C1 [PP3150] | 0.191 | 0.0029 | A (a compound having 10 or more and less than 20 is denoted as A) | A (a compound having 10 or more and less than 20 is denoted as A)
CCO[C@@H]1C[C@H]2C(=O)NC3(CC(C)(C)C3)C(=O)N(C)[C@@H](C3CCCC3)C(=O)N(C)[C@H](C(=O)N(C)CC)CC(=O)N(C)[C@@H](CC(C)C)C(=O)N[C@@H]([C@@H](C)CC)C(=O)N(C)CC(=O)N(C)[C@H]3C/C=C\CCN(C3=O)[C@@H](Cc3ccc(C(F)F)cc3)C(=O)N(C)CC(=O)N[C@@H](CCc3ccc4c(c3)CCC4(F)F)C(=O)N2C1 [PP3152] | 0.62 | 0.002 | A (a compound having 10 or more and less than 20 is denoted as A) | AA (a compound having 20 or more is denoted as AA)
CCO[C@@H]1C[C@H]2C(=O)NC3(CC(C)(C)C3)C(=O)N(C)[C@@H](C3CCCC3)C(=O)N(C)[C@H](C(=O)N(C)CC)CC(=O)N(C)[C@@H](CC(C)C)C(=O)N[C@@H]([C@@H](C)CC)C(=O)N(C)CC(=O)N(C)[C@H]3C/C=C\CCN(C3=O)[C@@H](Cc3ccc(C(F)F)cc3)C(=O)N(C)CC(=O)N[C@@H](CCc3ccc(C4CC4)c(OC)c3)C(=O)N2C1 [PP3153] | 0.0287 | 0.0014 | A (a compound having 10 or more and less than 20 is denoted as A) | A (a compound having 10 or more and less than 20 is denoted as A)
CCO[C@@H]1C[C@H]2C(=O)NC3(CC(C)(C)C3)C(=O)N(C)[C@@H](C3CCCC3)C(=O)N(C)[C@H](C(=O)N(C)CC)CC(=O)N(C)[C@@H](CC(C)C)C(=O)N[C@@H]([C@@H](C)CC)C(=O)N(C)CC(=O)N(C)[C@H]3C/C=C\CCN(C3=O)[C@@H](Cc3ccc(C(F)F)cc3)C(=O)N(C)CC(=O)N[C@@H](CCc3ccc(C4CC4)c(F)c3)C(=O)N2C1 [PP3154] | 0.0262 | 0.00053 | A (a compound having 10 or more and less than 20 is denoted as A) | A (a compound having 10 or more and less than 20 is denoted as A)
CCO[C@@H]1C[C@H]2C(=O)NC3(CC(C)(C)C3)C(=O)N(C)[C@@H](C3CCCC3)C(=O)N(C)[C@H](C(=O)N(C)CC)CC(=O)N(C)[C@@H](CC(C)C)C(=O)N[C@@H]([C@@H](C)CC)C(=O)N(C)CC(=O)N(C)[C@H]3C/C=C\CCN(C3=O)[C@@H](Cc3ccc(C(F)F)cc3)C(=O)N(C)CC(=O)N[C@@H](CCc3ccc(C4CC4)c(Cl)c3)C(=O)N2C1 [PP3155] | 0.0625 | 0.00064 | A (a compound having 10 or more and less than 20 is denoted as A) | A (a compound having 10 or more and less than 20 is denoted as A)

Continued, in another order:

IC50 [1] [µM] | Kd [2] [µM] | SMILES | HRAS /KRAS (HRAS wild-type protein) | NRAS /KRAS [3]
0.0727 | 0.0043 | CCO[C@@H]1C[C@H]2C(=O)NC3(CC(C)(C)C3)C(=O)N(C)[C@@H](C3CCCC3)C(=O)N(C)[C@H](C(=O)N(C)CC)CC(=O)N(C)[C@@H](CC(C)C)C(=O)N[C@@H]([C@@H](C)CC)C(=O)N(C)CC(=O)N(C)[C@H]3C/C=C\CCN(C3=O)[C@@H](Cc3ccc(C(F)F)cc3)C(=O)N(C)CC(=O)N[C@@H](CCc3cc(C)c(C(F)F)c(C)c3)C(=O)N2C1 [PP3144] | A (a compound having 10 or more and less than 20 is denoted as A) | A (a compound having 10 or more and less than 20 is denoted as A)
0.0418 | 0.0014 | CCO[C@@H]1C[C@H]2C(=O)NC3(CC(C)(C)C3)C(=O)N(C)[C@@H](C3CCCC3)C(=O)N(C)[C@H](C(=O)N(C)CC)CC(=O)N(C)[C@@H](CC(C)C)C(=O)N[C@@H]([C@@H](C)CC)C(=O)N(C)CC(=O)N(C)[C@H]3C/C=C\CCN(C3=O)[C@@H](Cc3ccc(C(F)F)cc3)C(=O)N(C)CC(=O)N[C@@H](CCc3cc(C)c(C(F)F)c(Cl)c3)C(=O)N2C1 [PP3146] | A (a compound having 10 or more and less than 20 is denoted as A) | A (a compound having 10 or more and less than 20 is denoted as A)
0.0564 | 0.00084 | CCO[C@@H]1C[C@H]2C(=O)NC3(CC(C)(C)C3)C(=O)N(C)[C@@H](C3CCCC3)C(=O)N(C)[C@H](C(=O)N(C)CC)CC(=O)N(C)[C@@H](CC(C)C)C(=O)N[C@@H]([C@@H](C)CC)C(=O)N(C)CC(=O)N(C)[C@H]3C/C=C\CCN(C3=O)[C@@H](Cc3ccc(C(F)F)cc3)C(=O)N(C)CC(=O)N[C@@H](CCc3cc(F)c4c(c3)CCC4)C(=O)N2C1 [PP3149] | A (a compound having 10 or more and less than 20 is denoted as A) | A (a compound having 10 or more and less than 20 is denoted as A)
0.0186 | 0.00023 | CCO[C@@H]1C[C@H]2C(=O)NC3(CC(C)(C)C3)C(=O)N(C)[C@@H](C3CCCC3)C(=O)N(C)[C@H](C(=O)N(C)CC)CC(=O)N(C)[C@@H](CC(C)C)C(=O)N[C@@H]([C@@H](C)CC)C(=O)N(C)CC(=O)N(C)[C@H]3C/C=C\CCN(C3=O)[C@@H](Cc3ccc(C(F)F)cc3)C(=O)N(C)CC(=O)N[C@@H](CCc3ccc(C(F)(F)F)c(C4CC4)c3)C(=O)N2C1 [PP3151] | A (a compound having 10 or more and less than 20 is denoted as A) | A (a compound having 10 or more and less than 20 is denoted as A)
0.0638 | 0.002 | CCO[C@@H]1C[C@H]2C(=O)NC3(CC(C)(C)C3)C(=O)N(C)[C@@H](C3CCCC3)C(=O)N(C)[C@H](C(=O)N(C)CC)CC(=O)N(C)[C@@H](CC(C)C)C(=O)N[C@@H]([C@@H](C)CC)C(=O)N(C)CC(=O)N(C)[C@H]3C/C=C\CCN(C3=O)[C@@H](Cc3ccc(C(F)F)cc3)C(=O)N(C)CC(=O)N[C@@H](CCc3ccc(C4CC4)c(C)c3)C(=O)N2C1 [PP3156] | A (a compound having 10 or more and less than 20 is denoted as A) | A (a compound having 10 or more and less than 20 is denoted as A)
